Test results reported in BindingDB's records for doi:10.7270/Q2RB7351 (Technical University of Gdansk, 1997).

Biological target: Glutamine--fructose-6-phosphate aminotransferase [isomerizing] (Candida albicans (strain SC5314 / ATCC MYA-2876), UniProt P53704)
Assay: Enzyme Assay
Settings: pH 6.85
Source text: Two assays of GlcN-6-P synthase activity were used 1)determination of GlcN-6_P formation by the modified Elson-Morgan procedure and 2) continuous quantitation of glutamate in a coupled assay with glutamate dehydrogenase in the presence of acetylpyridine adenine dinucleotide.

Chain of Glutamine--fructose-6-phosphate aminotransferase [isomerizing] (P53704 whole entry): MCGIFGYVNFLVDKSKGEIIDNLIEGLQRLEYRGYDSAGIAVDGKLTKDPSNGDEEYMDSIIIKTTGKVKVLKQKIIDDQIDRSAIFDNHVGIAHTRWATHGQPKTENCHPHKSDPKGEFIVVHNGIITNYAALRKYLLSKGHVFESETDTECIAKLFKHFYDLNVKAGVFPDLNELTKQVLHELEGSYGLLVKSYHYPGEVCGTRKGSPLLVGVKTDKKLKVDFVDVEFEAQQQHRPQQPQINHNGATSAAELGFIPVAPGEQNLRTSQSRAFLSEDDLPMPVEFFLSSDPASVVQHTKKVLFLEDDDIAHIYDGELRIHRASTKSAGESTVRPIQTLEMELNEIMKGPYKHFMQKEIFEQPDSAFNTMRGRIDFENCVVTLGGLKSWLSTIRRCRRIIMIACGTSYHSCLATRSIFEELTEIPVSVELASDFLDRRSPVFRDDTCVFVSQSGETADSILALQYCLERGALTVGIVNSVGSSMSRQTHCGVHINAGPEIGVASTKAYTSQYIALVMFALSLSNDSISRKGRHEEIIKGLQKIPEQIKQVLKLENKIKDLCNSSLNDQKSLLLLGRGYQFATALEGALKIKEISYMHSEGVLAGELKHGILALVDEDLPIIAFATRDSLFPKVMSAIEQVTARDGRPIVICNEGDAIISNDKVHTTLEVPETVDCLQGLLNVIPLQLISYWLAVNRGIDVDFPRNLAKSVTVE

Going from `N[C@@H](CCP(=O)(O)O)C(=O)O` to `CO[P@@](=O)(O)CC[C@H](N)C(=O)O` [GlcN-6-P synthase inhibitor, 5 (racemic mixture)], the IC50 falls from 26 mM to 2 mM (13-fold). The second is the more potent here.

First: COC(=O)C(N)CCS(C)(=O)=O (racemic) [GlcN-6-P synthase inhibitor, 11 (racemic mixture)]
Second: COC(=O)C(N)CCS(N)(=O)=O (racemic) [GlcN-6-P synthase inhibitor, 14 (racemic mixture)]
The IC50 of the first is higher: over 50 mM for the first, 5.5 mM for the second.

Going from `COC(=O)C(N)CNS(C)(=O)=O` (racemic) [GlcN-6-P synthase inhibitor, 12 (racemic mixture)] to `COC(=O)C(N)CCS(C)(=N)=O` [GlcN-6-P synthase inhibitor, 13 (racemic mixture)], the IC50 falls from over 50 mM to 2.8 mM. The second is the more potent here.

Going from `CCN(CC)S(=O)(=O)CCC(N)C(=O)OC` (racemic) [GlcN-6-P synthase inhibitor, 15 (racemic mixture)] to `CCN(CC)P(=O)(CCC(N)C(=O)OC)OC` [GlcN-6-P synthase inhibitor, 9 (racemic mixture)], the IC50 rises from 1.6 mM to 3.6 mM (2.2-fold). The first is the more potent here.

`COC(=O)C(N)CCP(=O)(OC)OC` [GlcN-6-P synthase inhibitor, 2 (racemic mixture)] and `COP(=O)(CCC(N)C(=O)O)OC` [GlcN-6-P synthase inhibitor, 3 (racemic mixture)] cannot be ordered by IC50: over 50 mM for the first, over 50 mM for the second.

Compared with `COC(=O)C(N)CCP(=O)(O)OC` [GlcN-6-P synthase inhibitor, 4 (racemic mixture)], `COC(=O)C(N)CCP(N)(=O)OC` [GlcN-6-P synthase inhibitor, 6 (racemic mixture)] is 9.6-fold higher in IC50: 2.6 mM for the first, 25 mM for the second.

Going from `CCNP(=O)(CCC(N)C(=O)OC)OC` [GlcN-6-P synthase inhibitor, 7 (racemic mixture)] to `COC(=O)C(N)CCP(=O)(OC)N(C)C` [GlcN-6-P synthase inhibitor, 8 (racemic mixture)], the IC50 falls from 7.8 mM to 4.4 mM (1.8-fold). The second is the more potent here.

Going from `N[C@@H](CCP(=O)(O)O)C(=O)O` to `CO[P@@](=O)(O)CC[C@H](N)C(=O)O` [GlcN-6-P synthase inhibitor, 5 (racemic mixture)], the Ki falls from 12 mM to 0.9 mM (13-fold).

First: COC(=O)C(N)CCS(N)(=O)=O (racemic) [GlcN-6-P synthase inhibitor, 14 (racemic mixture)]
Second: COC(=O)C(N)CCS(C)(=N)=O [GlcN-6-P synthase inhibitor, 13 (racemic mixture)]
The Ki of the first is 1.9-fold higher: 2.8 mM for the first, 1.5 mM for the second.

Compared with `CCN(CC)S(=O)(=O)CCC(N)C(=O)OC` (racemic) [GlcN-6-P synthase inhibitor, 15 (racemic mixture)], `CCN(CC)P(=O)(CCC(N)C(=O)OC)OC` [GlcN-6-P synthase inhibitor, 9 (racemic mixture)] is 1.6-fold higher in Ki: 0.6 mM for the first, 0.94 mM for the second.

Compared with `COC(=O)C(N)CCP(=O)(O)OC` [GlcN-6-P synthase inhibitor, 4 (racemic mixture)], `COC(=O)C(N)CCP(N)(=O)OC` [GlcN-6-P synthase inhibitor, 6 (racemic mixture)] is 9.2-fold higher in Ki: 1.2 mM for the first, 11 mM for the second. The first binds more tightly here.

Going from `CCNP(=O)(CCC(N)C(=O)OC)OC` [GlcN-6-P synthase inhibitor, 7 (racemic mixture)] to `COC(=O)C(N)CCP(=O)(OC)N(C)C` [GlcN-6-P synthase inhibitor, 8 (racemic mixture)], the Ki falls from 4.4 mM to 1.3 mM (3.4-fold).
